Data on one molecule can be found in article PMC6511062, “Preclinical candidate for the treatment of visceral leishmaniasis that acts through proteasome inhibition” (Proceedings of the National Academy of Sciences of the …, 2019).

SMILES strings stand for the structures. “Also recorded” adds a separate entry of the source. Like-named read-outs stand apart in the source and are kept apart here.

For data set [1], the system named is L. donovani proteasome β subunits. As to the kind of experiment: Activity-based probe (UbiQ-018) labelling of L. donovani proteasome. It is filed as binding, Leishmania donovani. To be noted: 100 µM. The method, then: m. Activity-Based Probe Labelling of THP1 and L. donovani proteasome
Proteasome enriched fractions from THP1 (20 µg), L. donovani (10 µg) and L. donovani […]
µM for 1 h. Proteasome enriched fractions were also incubated with DMSO as control.
For all proteasome labelling experiments, the active-site probe Me4BodipyFL-Ahx3Leu3VS (UbiQ-018) was used at final concentration of 500 nM in sucrose buffer (50 mM Tris buffer pH 7.5, 5 mM magnesium chloride, 1 mM EDTA, 50 mM NaCl, 250 mM sucrose, 2 mM ATP, 1 mM DTT). Proteasome enriched fractions treated with […]
DMSO or test compounds, were incubated with the probe for 2h at RT. Samples were then denatured by addition of Laemmli sample buffer, heated to 95°C for 10 min and separated by electrophoresis on a 15% SDS-PAGE acrylamide gel. Following separation, gels were scanned in the fluorescein channel of a ChemiDoc reader (λ excitation/emission = 480/530 nm). Fluorescent proteins were excised and MALDI– TOF analysis carried out by the FingerPrints Proteomics service at the University of […]
10. Measuring Proteolytic activity of Leishmania tarentolae Proteasome […]
pre-prepared as a 10 mM stocks in 100 % DMSO and then diluted 1 in 3, over 11 points, prior to dispense of 100 nl of each dilution series into black, low volume, 384-well microplates. Proteasome was prepared as a 0.5 µg/mL working solution in assay buffer (50 mM HEPES (pH 7.5), 150 mM NaCl, 5 mM MgCl2, 5% glycerol, 1 mM CHAPS) and 5 µL was added using a Multidrop Micro (Thermo Fisher Scientific) to all wells containing compound dilutions on the test microplates. The microplates were then centrifuged for 1 min at 1000 rpm and incubated for 15 mins at 25 °C, prior to an assay initiating addition of 5 µl of fluorogenic substrate, which had been prepared as a 1 µM […]
The assay microplates were then centrifuged for 10 secs before using a Tecan M1000 Pro to monitor the increase of fluorescent intensity at 25 °C by excitation of the liberated Rhodamine110 at 485 nm and emission at 535 nm every 125 secs for 20 cycles. […]
calculate initial rates of reactions for all assay wells on the microplate by fitting to a linear regression model. The initial rates of reaction for all compound concentrations tested were normalised to the initial rates determined for 16 replicate control wells per microplate of both uninhibited reaction and no-proteasome background, and subsequently, IC50 values were determined by fitting the normalised data to the following four-parameter logistic model; y = a + (( b – a) / ( 1 + ( 10 ^ x / 10 ^ c ) ^ d ), where ‘a’ is the minimum, ‘b’ is […], ‘c’ is the IC50 and ‘d’ is […].
11. Cryo-EM of 20S Leishmania tarentolae proteasome a. Purification of 20S Leishmania tarentolae proteasome. […]

The test system of data set [2] is clinically-relevant Leishmania strains. As to the kind of experiment: Activity in clinically-relevant Leishmania strains. The format is cell-based. The text has this:
Strain Leishmania EC50 (µM) Host Cell EC50 (µM)
Results from one or two (both values shown) biological replicates. […]

Data set [3] can be described thus: Pharmacokinetics in male beagle dogs. The format is in vivo, dog. The method, then:
5. Intrinsic clearance (CLint) […]
6. Pharmacokinetic studies.
Mouse pharmacokinetic studies were conducted in male CD-1 mice and male beagle dogs. 3 animals per group were used for each study performed.
A dose of 3 mg/kg was administered intravenously, in a bolus form to mice and infused over a 30 min period to dogs. For all the intravenous studies compound were dissolved in 5% DMSO/20% kleptose in saline.
A dose of 10 mg/kg was orally administered by gavage to the two species in a suspension of 1% methylcellulose to investigate oral pharmacokinetics.
Peripheral blood samples were obtained at 5, 15, 30 min, 1, 2, 4, 6 ,8 and 24 h after intravenous administration and 15, 30, 45 min,1, 2, 4, 6, 8 and 24 h after oral administration. Blood was 1/2 diluted with milliQ water and immediately frozen on dry ice until analysis. Quantification was performed by means of LC-MS/MS (API4000), with a lower limit of quantification of 1 ng/mL.
Pharmacokinetic parameters, namely clearance (CL), volume of distribution at steady state (Vss) and bioavailability (F%), were estimated using Phoenix, WinNonLin […]
Data analysis and calculation of pharmacokinetic parameters was performed using Phoenix, WinNonLin Version 6.3.
Following the intravenous administration, the whole blood clearance was calculated

Setting [4] is: male, beagle, whole blood, dog, 3 mg/kg iv 0.5 h infusion.

For the molecule `O=C(Nc1ccc(F)c(-c2ccn3c(N4CCOCC4)cnc3n2)c1)N1CCCC1` [Compound 8], the “UbiQ-018 labelling of proteasome subunits” value is “selectively blocks labeling of β5; also recorded: selectively blocked UbiQ-018 labeling of the β5 subunit” in data set [1] (L. donovani WT extracts) and “could not be abolished” in data set [1] (L. donovani-resistant RES II extracts). For the same molecule, the EC50 was about 1000 nM in data set [2] (Leishmania, in vitro, clinical strains incl. LV9, SUKA001, DD8-WT, BHU1, read-out: EC50 against clinical strains); 400 nM in data set [2] (Leishmania, strain MHOM/ET/67/HU3 (LV9), read-out: Leishmania EC50); 1600 nM in data set [2] (Leishmania, strain MHOM/IN/80/DD8, read-out: Leishmania EC50); 600 nM in data set [2] (Leishmania, strain MHOM/IN/2002/BHU1, read-out: Leishmania EC50); 500 nM in data set [2] (Leishmania, strain SUKA001, read-out: Leishmania EC50); 800 nM in data set [2] (strain MHOM/ET/67/HU3 (LV9), read-out: Leishmania EC50). In data set [3] (dog), the blood clearance is listed as 30 mL/min per kilogram. The “Cl (%LBF)” value in data set [3] (dog, 3 mg/kg iv) was found to be 53%. The molecule further returned a Vss in data set [3] (dog, 3 mg/kg iv 0.5 h infusion, 3 mg/kg) of 1.3 L/kg. In data set [3] (male, beagle, dog, whole blood, iv, 3 mg/kg, dog, 3 mg/kg iv 0.5 h infusion, read-out: Vss), the Vd was 1.34 ± 0.381 L/kg. The same molecule yielded a clearance in data set [3] (setting [4]) of 29.6 ± 6.06 mL/min/kg. This molecule also showed a half-life in data set [3] (setting [4]) of 31.2 ± 4.8 min. Moreover, the bioavailability in data set [3] (whole blood, Beagle male dog, 10 mg/kg po, read-out: F (oral bioavailability)) was determined as 46%.

Usually EC50 stands for the midpoint of the concentration-response curve. In general, Vss refers to the apparent volume that relates the amount in the body to the concentration in plasma or blood. A high value points to wide distribution into tissue. Broadly, the clearance is a measure of how efficiently the substance is removed, as volume per time. Lower therefore signals a low capacity for elimination. For orientation: half-life means the time needed for the level to fall by half in the phase considered. A low value points to rapid decline. A word on the bioavailability: it is the share of a dose that reaches the circulation, judged against a reference dose that is usually intravenous.
